Test results published in patent US8802597B2, “Herbicidal pyrimidines” (E I du Pont de Nemours and Company, priority 2003, dated 2014).
Read-outs that look alike come from different tables or passages of the source.

Tests used:
Format in all cases: in vivo
[1] = tested on: barnyardgrass (Echinochloa crus-galli); test: Test A pre/postemergence; conditions: Echinochloa crus-galli, 240 h, read-out: Plant response rating, Barnyardgrass; for pest or weed control at 125 g/ha: 125 g ai/ha; for pest or weed control at 500 g/ha: 500 g ai/ha
How it was run: (§1)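 Ratings: 0 = no effect, 100 = complete control, assessed visually about ten days post-treatment in a greenhouse. Applications: soil-directed preemergence spray and postemergence spray on 1- to 2-leaf plants, both using a surfactant-containing non-phytotoxic solvent formulation.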

[2] = tested on: crabgrass (Digitaria sanguinalis); test: Test A pre/postemergence; conditions: Digitaria sanguinalis, 240 h, read-out: Plant response rating, Crabgrass; for pest or weed control at 125 g/ha: 125 g ai/ha; for pest or weed control at 500 g/ha: 500 g ai/ha
How it was run: as §1

[3] = tested on: giant foxtail (Setaria faberi); test: Test A pre/postemergence; conditions: Setaria faberi, 240 h, read-out: Plant response rating, Foxtail, Giant; for pest or weed control at 125 g/ha: 125 g ai/ha; for pest or weed control at 500 g/ha: 500 g ai/ha
How it was run: as §1

[4] = tested on: morningglory (Ipomoea spp.); test: Test A pre/postemergence; conditions: Ipomoea, 240 h, read-out: Plant response rating, Morningglory; for pest or weed control at 125 g/ha: 125 g ai/ha; for pest or weed control at 500 g/ha: 500 g ai/ha
How it was run: as §1

[5] = tested on: redroot pigweed (Amaranthus retroflexus); test: Test A pre/postemergence; conditions: Amaranthus retroflexus, 240 h, read-out: Plant response rating, Pigweed; for pest or weed control at 125 g/ha: 125 g ai/ha; for pest or weed control at 500 g/ha: 500 g ai/ha
How it was run: as §1

[6] = tested on: velvetleaf (Abutilon theophrasti); test: Test A pre/postemergence; conditions: Abutilon theophrasti, 240 h, read-out: Plant response rating, Velvetleaf; for pest or weed control at 125 g/ha: 125 g ai/ha; for pest or weed control at 500 g/ha: 500 g ai/ha
How it was run: as §1

[7] = tested on: bermudagrass (Cynodon dactylon); test: Test C pre/postemergence; conditions: Cynodon dactylon; for pest or weed control at 16 g/ha: 16 g ai/ha; for pest or weed control at 31 g/ha: 31 g ai/ha; for pest or weed control at 62 g/ha: 62 g ai/ha; for pest or weed control at 125 g/ha: 125 g ai/ha
How it was run: (§2)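 Injury scored visually 12–14 days after application on 0–100 scale (100 = complete control), relative to controls. Compounds, formulated with surfactant in non-phytotoxic solvent, applied to soil at planting (pre) or to 1- to 4-leaf plants 2–18 cm tall (post) in greenhouse.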

[8] = tested on: johnsongrass (Sorghum halepense); test: Test C pre/postemergence; conditions: Sorghum halepense; for pest or weed control at 16 g/ha: 16 g ai/ha; for pest or weed control at 31 g/ha: 31 g ai/ha; for pest or weed control at 62 g/ha: 62 g ai/ha; for pest or weed control at 125 g/ha: 125 g ai/ha
How it was run: as §2

[9] = tested on: lambsquarters (Chenopodium album); test: Test C pre/postemergence; conditions: Chenopodium album; for pest or weed control at 16 g/ha: 16 g ai/ha; for pest or weed control at 31 g/ha: 31 g ai/ha; for pest or weed control at 62 g/ha: 62 g ai/ha; for pest or weed control at 125 g/ha: 125 g ai/ha
How it was run: as §2

[10] = tested on: soybean (Glycine max); test: Test C pre/postemergence; conditions: Glycine max; for plant injury at 16 g/ha: 16 g ai/ha; for plant injury at 31 g/ha: 31 g ai/ha; for plant injury at 62 g/ha: 62 g ai/ha
How it was run: as §2

[11] = tested on: chickweed (Stellaria media); test: Test C postemergence; conditions: Stellaria media, post-emergence
How it was run: as §2

[12] = post-emergence, Postemergence, 0 to 100 scale (0 no effect, 100 complete control)
[13] = pre-emergence, Preemergence, 0 to 100 scale where 0 is no effect and 100 is complete control, approximately ten days
[14] = post-emergence, Postemergence, read-out: Plant response rating (scale of 0 to 100), Bermudagrass
[15] = post-emergence, Postemergence, scale 0 to 100 (0 no effect, 100 complete control), read-out: Bermudagrass plant response rating
[16] = pre-emergence, Preemergence, scale 0 to 100, 0 no effect, 100 complete control, read-out: Plant response rating, Bermudagrass
[17] = post-emergence, Postemergence, read-out: Plant response rating (scale of 0 to 100), Johnsongrass
[18] = pre-emergence, Preemergence, scale 0 to 100, 0 no effect, 100 complete control, read-out: Plant response rating, Johnsongrass
[19] = post-emergence, Postemergence, read-out: Plant response rating (scale of 0 to 100), Lambsquarters
[20] = pre-emergence, Preemergence, scale 0 to 100, 0 no effect, 100 complete control, read-out: Plant response rating, Lambsquarters
[21] = post-emergence, Postemergence, read-out: Plant response rating (scale of 0 to 100), Soybean
[22] = pre-emergence, Preemergence, scale 0 to 100, 0 no effect, 100 complete control, read-out: Plant response rating, Soybean

Nc1nc(-c2ccc(Cl)cc2)nc(C(=O)O)c1Cl [Compound 65, 6-amino-5-chloro-2-(4-chlorophenyl)-4-pyrimidinecarboxylic acid]
pest or weed control at 125 g/ha [1, 12]: 85%
pest or weed control at 500 g/ha [1, 12]: 85%
pest or weed control at 125 g/ha [1, 13]: 50%
pest or weed control at 500 g/ha [1, 13]: 90%
pest or weed control at 125 g/ha [2, 12]: 55%
pest or weed control at 500 g/ha [2, 12]: 80%
pest or weed control at 125 g/ha [2, 13]: 60%
pest or weed control at 500 g/ha [2, 13]: 90%
pest or weed control at 125 g/ha [3, 12]: 85%
pest or weed control at 500 g/ha [3, 12]: 95%
pest or weed control at 125 g/ha [3, 13]: 40%
pest or weed control at 500 g/ha [3, 13]: 80%
pest or weed control at 125 g/ha [4, 12]: 75%
pest or weed control at 500 g/ha [4, 12]: 95%
pest or weed control at 125 g/ha [4, 13]: 25%
pest or weed control at 500 g/ha [4, 13]: 90%
pest or weed control at 125 g/ha [5, 12]: 100%
pest or weed control at 500 g/ha [5, 12]: 100%
pest or weed control at 125 g/ha [5, 13]: 100%
pest or weed control at 500 g/ha [5, 13]: 100%
pest or weed control at 125 g/ha [6, 12]: 95%
pest or weed control at 500 g/ha [6, 12]: 100%
pest or weed control at 125 g/ha [6, 13]: 55%
pest or weed control at 500 g/ha [6, 13]: 95%
pest or weed control at 16 g/ha [7, 14]: 60%
pest or weed control at 31 g/ha [7, 14]: 60%
pest or weed control at 62 g/ha [7, 15]: 70%
pest or weed control at 125 g/ha [7, 15]: 70%
pest or weed control at 16 g/ha [7, 16]: 0%
pest or weed control at 31 g/ha [7, 16]: 50%
pest or weed control at 62 g/ha [7, 16]: 70%
pest or weed control at 125 g/ha ([7]; pre-emergence, Preemergence, scale 0 to 100, read-out: Plant response rating, Bermudagrass): 80%
pest or weed control at 16 g/ha [8, 17]: 45%
pest or weed control at 31 g/ha [8, 17]: 60%
pest or weed control at 62 g/ha [8, 17]: 85%
pest or weed control at 125 g/ha ([8]; post-emergence, Postemergence, scale 0 to 100 (0 no effect, 100 complete control), read-out: Johnsongrass plant response rating): 85%
pest or weed control at 16 g/ha [8, 18]: 0%
pest or weed control at 31 g/ha [8, 18]: 50%
pest or weed control at 62 g/ha [8, 18]: 60%
pest or weed control at 125 g/ha ([8]; pre-emergence, Preemergence, scale 0 to 100, read-out: Plant response rating, Johnsongrass): 70%
pest or weed control at 16 g/ha [9, 19]: 85%
pest or weed control at 31 g/ha [9, 19]: 90%
pest or weed control at 62 g/ha [9, 19]: 90%
pest or weed control at 125 g/ha ([9]; post-emergence, Postemergence, scale 0 to 100 (0 no effect, 100 complete control), read-out: Lambsquarters plant response rating): 95%
pest or weed control at 16 g/ha [9, 20]: 0%
pest or weed control at 31 g/ha [9, 20]: 50%
pest or weed control at 62 g/ha [9, 20]: 80%
pest or weed control at 125 g/ha ([9]; pre-emergence, Preemergence, scale 0 to 100, read-out: Plant response rating, Lambsquarters): 100%
plant injury at 16 g/ha [10, 21]: 100%
plant injury at 31 g/ha [10, 21]: 100%
plant injury at 62 g/ha [10, 21]: 100%
plant injury at 125 g/ha ([10]; post-emergence, Postemergence, 125 g ai/ha, scale 0 to 100 (0 no effect, 100 complete control), read-out: Soybean plant response rating): 100%
plant injury at 16 g/ha [10, 22]: 85%
plant injury at 31 g/ha [10, 22]: 95%
plant injury at 62 g/ha [10, 22]: 95%
pest or weed control at 16 g/ha ([11]; 16 g ai/ha, read-out: Plant response rating (scale of 0 to 100), Chickweed): 60%
pest or weed control at 31 g/ha ([11]; 31 g ai/ha, read-out: Plant response rating (scale of 0 to 100), Chickweed): 60%
pest or weed control at 62 g/ha ([11]; 62 g ai/ha, read-out: Plant response rating (scale of 0 to 100), Chickweed): 60%
pest or weed control at 125 g/ha ([11]; 125 g ai/ha, scale 0 to 100 (0 no effect, 100 complete control), read-out: Chickweed plant response rating): 70%
